Measurements reported in EP4782453A1 (Beyang Therapeutics Co., Ltd., priority 2023, dated 2025).

target: T1, Menin-MLL (Homo sapiens, UniProt O00255); experiment: Inhibitory activity against Menin-MLL binding (fluorescence polarization); conditions: Menin-MLL IC50, fluorescence polarization; 150 nM His-Menin, 15 nM FITC-MLL; 25°C for 60 min
T1 construct: His-Menin (M1-L615 end); purchased BIORTUS BP9210
T1 sequence (O00255 1-615 isoform O00255-1): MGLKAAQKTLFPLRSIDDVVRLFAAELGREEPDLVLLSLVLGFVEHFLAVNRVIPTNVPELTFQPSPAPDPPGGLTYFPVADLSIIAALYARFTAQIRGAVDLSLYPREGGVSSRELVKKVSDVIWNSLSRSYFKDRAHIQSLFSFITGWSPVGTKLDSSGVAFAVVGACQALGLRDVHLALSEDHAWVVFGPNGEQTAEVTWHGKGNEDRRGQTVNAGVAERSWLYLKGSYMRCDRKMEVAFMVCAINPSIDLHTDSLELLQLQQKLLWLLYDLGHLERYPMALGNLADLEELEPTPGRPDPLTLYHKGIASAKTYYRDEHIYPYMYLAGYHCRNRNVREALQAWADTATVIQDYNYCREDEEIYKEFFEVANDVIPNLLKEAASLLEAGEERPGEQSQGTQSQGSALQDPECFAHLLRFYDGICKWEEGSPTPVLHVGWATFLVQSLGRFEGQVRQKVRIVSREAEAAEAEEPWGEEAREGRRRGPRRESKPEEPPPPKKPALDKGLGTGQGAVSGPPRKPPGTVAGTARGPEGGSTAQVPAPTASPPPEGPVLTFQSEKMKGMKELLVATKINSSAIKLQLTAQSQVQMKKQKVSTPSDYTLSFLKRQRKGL
Method in brief: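 Fluorescence polarization competition: compound and 150 nM His-tagged menin (residues M1-L615) sit 15 min at 25 °C in pH 7.5 HEPES buffer with NaCl, DTT and BSA; 15 nM FITC-labelled MLL peptide then binds for 60 min. IC50 fitted sigmoidally from mP values, duplicate wells.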

SMILES | IC50
CCN(C(=O)c1cc(F)ccc1-c1cc(C2CN(C(=O)C3NC4CCC3CC4)C2)cn2c(C)nc(F)c12)C(C)C [Example 107, N-ethyl-5-fluoro-2-(1-fluoro-3-methyl-6-{1-[(1R,3S,4S)-2-azabicyclo[2.2.2]octan-3-carbonyl]azacyclobutan-3-yl}imidazo[1,5-a]pyridin-8-yl)-N-(isopropyl)benzamide] | 4.5 nM
CCN(C(=O)c1cc(F)ccc1-c1cc(C2CN(C(=O)[C@@H](NC)C3CCCC3)C2)cn2c(C)nc(F)c12)C(C)C [Example 317] | 92 nM
CCN(C(=O)c1cc(F)ccc1-c1cc([C@H]2CCN(C[C@H]3CC[C@H](NS(=O)(=O)CC)CC3)C2)nc2c1cnn2C)C(C)C [Example 11-2, N-ethyl-5-fluoro-2-{1-methyl-6-[(3S)-1-{[(1r,4r)-4-ethanesulfonamidocyclohexyl]methyl}pyrrolidin-3-yl]-1H-pyrazolo[3,4-b]pyridin-4-yl}-N-(isopropyl)benzamide] | 65.5 nM
CCS(=O)(=O)N[C@H]1CC[C@H](CN2CCC(c3cc(-c4ccc(F)cc4C(=O)N(CC(F)F)C(C)C)c4cnc(C)cn34)CC2)CC1 [Example 154, N-(2,2-difluoroethyl)-5-fluoro-2-[3-methyl-6-(1-{[(1r,4r)-4-ethanesulfonamidocyclohexyl]methyl}piperidin-4-yl)pyrrolo[1,2-a]pyrazin-8-yl]-N-(isopropyl)benzamide] | 166 nM
CCN(C(=O)c1cc(F)ccc1-c1cc(C2CN([C@H](CCCN3CCN4C(=O)OCC4(CO)C3)C(C)C)C2)cn2c(C)ncc12)C(C)C (stereo partly drawn) [Example 484, 2-(6-{1-[(3R)-6-[8^a-(hydroxymethyl)-3-oxo-hexahydro-1H-[1,3]oxazolo[3,4-a]pyrazin-7-yl]-2-methylhexan-3-yl]azacyclobutan-3-yl}-3-methylimidazo[1,5-a]pyridin-8-yl)-N-ethyl-5-fluoro-N-(isopropyl)benzamide] | 4.2 nM
CCN(C(=O)c1cc(F)ccc1-c1cc(C2=CCN(C(=O)C3NC4CCC3CC4)CC2)n2ccncc12)C(C)C [Example 110, N-ethyl-5-fluoro-N-(isopropyl)-2-(6-{1-[(1R,3S,4S)-2-azabicyclo[2.2.2]octan-3-carbonyl]-1,2,3,6-tetrahydropyridin-4-yl}pyrrolo[1,2-a]pyrazin-8-yl)benzamide] | 25 nM
CCN(C(=O)c1cc(F)ccc1-c1cc(N2CCC(NC[C@H]3CC[C@H](N4CCOC4=O)CC3)CC2)cc2c1cnn2C)C(C)C [Example 36, N-ethyl-5-fluoro-2-{1-methyl-6-[4-({[(1r,4r)-4-(2-oxo-1,3-oxazolidin-3-yl)cyclohexyl]methyl}amino)piperidin-1-yl]-1H-indazol-4-yl}-N-(isopropyl)benzamide] | 156 nM
CNC(=O)[C@H]1CC[C@H](CN2CC(c3cc(-c4ccc(F)cc4C(=O)N4CCOC[C@H]4C)c4c(F)nc(C)n4c3)C2)CC1 [Example 237, (1r,4r)-4-{[3-(1-fluoro-8-{4-fluoro-2-[(3R)-3-methylmorpholin-4-carbonyl]phenyl}-3-methylimidazo[1,5-a]pyridin-6-yl)azacyclobutan-1-yl]methyl}-N-methylcyclohexan-1-formamide] | 34 nM

same assay, conditions: fluorescence polarization; 150 nM His-Menin, 15 nM FITC-MLL; 25°C for 60 min; read-out: Menin-MLL IC50

IC50 | SMILES
205 nM | Cc1nc(F)c2c(-c3ccc(F)cc3C(=O)N3CCOC[C@H]3C)cc(C3CN([C@@H](CCCN4CCOCC4)C(C)C)C3)cn12 [Example 199-2, (3R)-4-[5-fluoro-2-(1-fluoro-3-methyl-6-{1-[(3S)-2-methyl-6-(morpholin-4-yl)hexan-3-yl]azacyclobutan-3-yl}imidazo[1,5-a]pyridin-8-yl)benzoyl]-3-methylmorpholine]
257 nM | COC1(C(=O)N2CCC(CN3CC(c4cc(-c5ccc(F)cc5C(=O)N5CCOC[C@H]5C)c5c(F)nc(C)n5c4)C3)CC2)CC1 [Example 262]
22 nM | COCCN(C)CCCC(C(C)C)N1CC(c2cc(-c3ccc(F)cc3C(=O)N(CC(F)F)C(C)C)c3cnn(C)c3c2)C1 (centres unmarked) [Example 180]
116 nM | CNC(=O)N1CCC([C@@H](C)N2CC(c3cc(-c4ccc(F)cc4C(=O)N4CCOC[C@H]4C)c4c(F)nc(C)n4c3)C2)CC1 [Example 264-1]
152 nM | COc1cc(-c2ccc(CCN3CCN(c4cc(-c5ccc(F)cc5C(=O)N5CCOC[C@H]5C)c5cnc(C)n5c4)CC3)cc2)nnc1OC [Example 86]
180 nM | COC1(CN2CC(c3cc(-c4ccc(F)cc4C(=O)N4CCOC[C@H]4C)c4c(F)nc(C)n4c3)C2)CCOCC1 [Example 236]
2 nM | CCN(C(=O)c1cc(F)ccc1-c1cc(C2CN([C@H](CCCN3CC4CC(C3)N4C)C(C)C)C2)cn2c(C)ncc12)C(C)C [Example 392]
262 nM | COCCN(C)CCC[C@@H](C(C)C)N1CC(c2cc(-c3ccc(F)cc3C(=O)N3[C@H](C)COC[C@H]3C)c3cnn(C)c3c2)C1 [Example 186-1, [(4S)-4-[3-(4-{2-[(3R,5R)-3,5-dimethylmorpholin-4-carbonyl]-4-fluorophenyl}-1-methyl-1H-indazol-6-yl)azacyclobutan-1-yl]-5-methylhexyl](2-methoxyethyl)methylamine]
45.5 nM | CCS(=O)(=O)NC1CCC(CN2CCC(c3cc(-c4ccc(F)cc4C(=O)N4CCC(F)(F)CC4C)c4cnn(C)c4c3)C2)CC1 (centres unmarked) [Example 101, N-{4-[(3-{4-[2-(4,4-difluoro-2-methylpiperidin-1-carbonyl)-4-fluorophenyl]-1-methyl-1H-indazol-6-yl}pyrrolidin-1-yl)methyl]cyclohexyl}ethan-1-sulfonamide]
17 nM | COC[C@H]1CN(CCC[C@@H](C(C)C)N2CC(c3cc(-c4ccc(F)cc4C(=O)N(C(C)C)C(C)C)c4cnc(C)n4c3)C2)CCN1 [Example 504-1, 5-fluoro-2-(6-{1-[(3S)-6-[(3R)-3-(methoxymethyl)piperazin-1-yl]-2-methylhexan-3-yl]azacyclobutan-3-yl}-3-methylimidazo[1,5-a]pyridin-8-yl)-N,N-di(isopropyl)benzamide]
120 nM | CCN(C(=O)c1cc(F)ccc1-c1cc([C@H]2CCN(CC3(O)CCC(NS(=O)(=O)CC)CC3)C2)cc2c1cnn2C)C(C)C (stereo partly drawn) [Compound 55-1-2, N-ethyl-5-fluoro-2-[1-methyl-6-[(3R)-1-{[(1r,4r)-4-ethanesulfonamido-1-hydroxylcyclohexyl]methyl}pyrrolidin-3-yl]-1H-indazol-4-yl]-N-(isopropyl)benzamide]
44 nM | Cc1nc(F)c2c(-c3ccc(F)cc3C(=O)N3CCOC[C@H]3C)cc(C3CN(CC4CCN(S(C)(=O)=O)CC4)C3)cn12 [Example 273]
40 nM | CCN(C(=O)c1cc(F)ccc1-c1cc(C2CN([C@@H](CC[C@H]3COCCN3)C(C)C)C2)cn2c(C)ncc12)C(C)C [Example 457-1, N-ethyl-5-fluoro-2-(3-methyl-6-{1-[(3S)-4-methyl-1-[(3S)-morpholin-3-yl]pentan-3-yl]azacyclobutan-3-yl}imidazo[1,5-a]pyridin-8-yl)-N-(isopropyl)benzamide]
124 nM | CCN(C(=O)c1cc(F)ccc1-c1cc(N2CCN(CC3CCCCC3)CC2)cn2c(C)ncc12)C(C)C [Compound 58, 2-{6-[4-(cyclohexylmethyl)piperazin-1-yl]-3-methylimidazo[1,5-a]pyridin-8-yl}-N-ethyl-5-fluoro-N-(isopropyl)benzamide]
26 nM | Cc1nc(F)c2c(-c3ccc(F)cc3C(=O)N3CCOC[C@H]3C)cc(C3CN(C(CC[C@H]4COCCN4C)C(C)C)C3)cn12 (stereo partly drawn) [Example 374, (3R)-4-{5-fluoro-2-[1-fluoro-3-methyl-6-(1-{4-methyl-1-[(3S)-4-methylmorpholin-3-yl]pentan-3-yl}azacyclobutan-3-yl)imidazo[1,5-a]pyridin-8-yl]benzoyl}-3-methylmorpholine]
130 nM | CCN(C(=O)c1cc(F)ccc1-c1cc(C2CN([C@@H](CCCN3CCC(OCCO)CC3)C(C)C)C2)cc2c1cnn2C)C(C)C [Example 401-1]
2.2 nM | CCN(C(=O)c1cc(F)ccc1-c1cc(C2CN([C@H](CCCN3CCN(C4(C#N)COC4)CC3)C(C)C)C2)cn2c(C)ncc12)C(C)C [Example 487, 2-(6-{1-[(3R)-6-[4-(3-cyanooxacyclobutan-3-yl)piperazin-1-yl]-2-methylhexan-3-yl]azacyclobutan-3-yl}-3-methylimidazo[1,5-a]pyridin-8-yl)-N-ethyl-5-fluoro-N-(isopropyl)benzamide]
167 nM | Cc1nc(F)c2c(-c3ccc(F)cc3C(=O)N3[C@H](C)COC[C@H]3C)cc(C3CN(CC4(O)CCOCC4)C3)cn12 [Example 220, 4-{[3-(8-{2-[(3R,5R)-3,5-dimethylmorpholin-4-carbonyl]-4-fluorophenyl}-1-fluoro-3-methylimidazo[1,5-a]pyridin-6-yl)azacyclobutan-1-yl]methyl}oxacyclohexan-4-ol]
